Experimental data from the supplement of paper PMC11061612.

What was measured:
Test in all cases: combination Emax (second highest fraction inhibited in the dose matrix, 72 h); higher = more inhibition; extreme values may be limits of the assay
[1] = system: BE2-M17 (Neuroblastoma)
In short: (§1)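 Bliss excess equals the observed combination effect minus the expected value EA + EB − EA·EB, where EA and EB are the effects of each agent alone. Combination Emax is the second-highest inhibition within the matrix. Inhibition was scaled from CellTiter-Glo 2.0 luminescence, with 0 set by vehicle wells and 1 by blank wells, after 72 hours of two-drug dosing of cells plated in 1536-well plates.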

[2] = system: BFTC-909 (Kidney Carcinoma)
In short: as §1

[3] = system: CAL-33 (Oral Cavity Carcinoma)
In short: as §1

[4] = system: CAL-72 (Osteosarcoma)
In short: as §1

[5] = system: ESS-1 (Other Solid Carcinomas)
In short: as §1

[6] = system: EW-11 (Ewing's Sarcoma)
In short: as §1

[7] = system: HH (T-Cell Non-Hodgkin's Lymphoma)
In short: as §1

[8] = system: HeLa (Cervical Carcinoma)
In short: as §1

[9] = system: Hs-746T (Gastric Carcinoma)
In short: as §1

[10] = system: LNZTA3WT4 (Low Grade Glioma)
In short: as §1

[11] = system: NCI-H524 (Small Cell Lung Carcinoma)
In short: as §1

[12] = system: OE21 (Esophageal Squamous Cell Carcinoma)
In short: as §1

[13] = system: OV-56 (Ovarian Carcinoma)
In short: as §1

[14] = system: SAS (Oral Cavity Carcinoma)
In short: as §1

[15] = system: SNU-16 (Gastric Carcinoma)
In short: as §1

[16] = system: SNU-449 (Hepatocellular Carcinoma)
In short: as §1

[17] = system: SW1573 (Lung Adenocarcinoma)
In short: as §1

[18] = system: SW1710 (Bladder Carcinoma)
In short: as §1

[19] = system: TGBC1TKB (Biliary Tract Carcinoma)
In short: as §1

[20] = system: WSU-NHL (B-Cell Non-Hodgkin's Lymphoma)
In short: as §1

Compound | combination Emax [1] | combination Emax [2] | combination Emax [3] | combination Emax [4] | combination Emax [5] | combination Emax [6] | combination Emax [7] | combination Emax [8] | combination Emax [9] | combination Emax [10] | combination Emax [11] | combination Emax [12] | combination Emax [13] | combination Emax [14] | combination Emax [15] | combination Emax [16] | combination Emax [17] | combination Emax [18] | combination Emax [19] | combination Emax [20]
CC(=O)Nc1cccc(-n2c(=O)n(C3CC3)c(=O)c3c(Nc4ccc(I)cc4F)n(C)c(=O)c(C)c32)c1 [Trametinib] + Cc1nc(-c2cn3c(n2)-c2ccc(-c4cnn(C(C)(C)C(N)=O)c4)cc2OCC3)n(C(C)C)n1 [Taselisib] (first compound max 1 µM, 7x7, partner max 10 µM) | 0.994 | 0.781 | 0.989 | 0.85 | 0.88 | 0.676 | 0.524 | 0.42 | 0.606 | 0.671 | 0.829 | 0.952 | 0.607 | 0.882 | 0.955 | 0.559 | 0.407 | 0.532 | 0.933 | 0.76
COc1nnc2ccc(N3CCC(c4ccc(OCCN5CCN(C)C(=O)[C@H]5C)cc4)CC3)nn12 [AZD5153] + Cc1c2c(nn1C)CSCc1cc(n(C)n1)CSc1cc(c3ccccc3c1)OCCCc1c(C(=O)O)n(C)c3c-2c(Cl)ccc13 [AZD5991] (first compound max 1 µM, 7x7, partner max 1 µM) | 0.847 | 0.535 | 0.628 | 0.792 | 0.898 | 0.945 | 1 | 0.799 | 0.495 | 0.441 | 0.934 | 0.83 | 0.351 | 0.823 | 1 | 0.292 | 0.422 | 0.355 | 0.289 | 1
CC(=O)c1c(C)c2cnc(Nc3ccc(N4CCNCC4)cn3)nc2n(C2CCCC2)c1=O [Palbociclib] + Cn1cnc2c(F)c(Nc3ccc(Br)cc3Cl)c(C(=O)NOCCO)cc21 [Selumetinib] (first compound max 10 µM, 7x7, partner max 10 µM) | 0.606 | 0.358 | 0.382 | 0.361 | 0.283 | 0.168 | 0.407 | 0.104 | 0.49 | 0.333 | 0.739 | 0.54 | 0.141 | 0.711 | 0.771 | 0.338 | 0.164 | 0.339 | 0.167 | 0.886
CC1(C)CCC(CN2CCN(c3ccc(C(=O)NS(=O)(=O)c4ccc(NCC5CCOCC5)c([N+](=O)[O-])c4)c(Oc4cnc5[nH]ccc5c4)c3)CC2)=C(c2ccc(Cl)cc2)C1 [Venetoclax] + C=CCn1c(=O)c2cnc(Nc3ccc(N4CCN(C)CC4)cc3)nc2n1-c1cccc(C(C)(C)O)n1 [AZD1775] (first compound max 1 µM, partner max 1 µM) | 0.825 | 0.667 | 0.761 | 0.924 | 1 | 0.715 | 0.766 | 0.573 | 0.481 | 0.917 | 0.895 | 0.636 | 0.168 | 0.761 | 0.912 | 0.239 | 0.407 | 0.315 | 0.35 | 0.985
CCN(CCO)CCCOc1ccc2c(Nc3cc(CC(=O)Nc4cccc(F)c4)[nH]n3)ncnc2c1 [AZD2811] + C=CCn1c(=O)c2cnc(Nc3ccc(N4CCN(C)CC4)cc3)nc2n1-c1cccc(C(C)(C)O)n1 [AZD1775] (first compound max 1 µM, partner max 1 µM) | 0.618 | 0.683 | 0.877 | 0.728 | 1 | 0.469 | 0.293 | 0.449 | 0.436 | 0.792 | 0.976 | 0.468 | 0.139 | 0.43 | 0.916 | 0.249 | 0.283 | 0.317 | 0.234 | 1
COc1nnc2ccc(N3CCC(c4ccc(OCCN5CCN(C)C(=O)[C@H]5C)cc4)CC3)nn12 [AZD5153] + C=CCn1c(=O)c2cnc(Nc3ccc(N4CCN(C)CC4)cc3)nc2n1-c1cccc(C(C)(C)O)n1 [AZD1775] (first compound max 1 µM, partner max 1 µM) | 0.964 | 0.702 | 0.724 | 0.647 | 0.898 | 0.572 | 0.47 | 0.54 | 0.535 | 0.643 | 0.908 | 0.742 | 0.279 | 0.823 | 0.871 | 0.249 | 0.544 | 0.36 | 0.296 | 0.952
Cn1cnc2c(F)c(Nc3ccc(Br)cc3Cl)c(C(=O)NOCCO)cc21 [Selumetinib] + C=CCn1c(=O)c2cnc(Nc3ccc(N4CCN(C)CC4)cc3)nc2n1-c1cccc(C(C)(C)O)n1 [AZD1775] (first compound max 10 µM, partner max 1 µM) | 0.887 | 0.646 | 0.836 | 0.519 | 0.936 | 0.42 | 0.0977 | 0.437 | 0.636 | 0.57 | 0.617 | 0.683 | 0.0799 | 0.678 | 0.802 | 0.129 | 0.361 | 0.264 | 0.233 | 0.854
COc1cccc(OCCCN)c1-c1cc(Nc2cnc(C#N)cn2)n[nH]1 [Prexasertib] + Cc1cc2ncnn2cc1Nc1ncc2c(n1)n(C1CCOCC1)c(=O)n2C [AZD7648] (first compound max 1 µM, 7x7, partner max 10 µM) | 0.983 | 0.945 | 0.816 | 0.994 | 1 | 0.742 | 0.65 | 0.839 | 0.78 | 0.9 | 0.988 | 0.788 | 0.88 | 0.926 | 0.998 | 0.308 | 0.201 | 0.728 | 0.483 | 1
CCc1c2c(nc3ccc(O)cc13)-c1cc3c(c(=O)n1C2)COC(=O)[C@]3(O)CC [SN-38] + CN(C)CCCOc1ccc(-c2ccc3ncc4c(c3c2)n(C2CCOCC2)c(=O)n4C)cn1 [AZD0156] (first compound max 0.3 µM, 7x7, partner max 1 µM) | 0.887 | 0.899 | 0.936 | 0.774 | 1 | 0.739 | 0.0821 | 0.295 | 0.531 | 0.449 | 0.608 | 0.678 | 0.88 | 1 | 0.927 | 0.196 | 0.794 | 0.312 | 0.366 | 1
CN(CCO)CC[C@H](CSc1ccccc1)Nc1ccc(S(=O)(=O)NC(=O)c2ccc(N3CCC([C@@H](O)c4ccccc4-c4ccc(Cl)cc4)CC3)cc2)cc1S(=O)(=O)C(F)(F)F [AZD4320] + CN(C)CCCOc1ccc(-c2ccc3ncc4c(c3c2)n(C2CCOCC2)c(=O)n4C)cn1 [AZD0156] (first compound max 1 µM, 7x7, partner max 1 µM) | 0.258 | 0.239 | 0.198 | 0.332 | 0.478 | 0.854 | 0.274 | 0.0679 | 0.38 | 0.0987 | 0.814 | 0.158 | 0.153 | 0.0348 | 0.322 | 0.15 | 0.128 | 0.117 | 0.492 | 0.866
CN(CCO)CC[C@H](CSc1ccccc1)Nc1ccc(S(=O)(=O)NC(=O)c2ccc(N3CCC([C@@H](O)c4ccccc4-c4ccc(Cl)cc4)CC3)cc2)cc1S(=O)(=O)C(F)(F)F [AZD4320] + C=CCn1c(=O)c2cnc(Nc3ccc(N4CCN(C)CC4)cc3)nc2n1-c1cccc(C(C)(C)O)n1 [AZD1775] (first compound max 1 µM, partner max 1 µM) | 0.92 | 0.905 | 0.859 | 0.782 | 1 | 0.949 | 0.802 | 0.722 | 0.738 | 0.889 | 0.952 | 0.641 | 0.165 | 0.647 | 0.917 | 0.138 | 0.698 | 0.418 | 0.508 | 0.995
Cc1c2c(nn1C)CSCc1cc(n(C)n1)CSc1cc(c3ccccc3c1)OCCCc1c(C(=O)O)n(C)c3c-2c(Cl)ccc13 [AZD5991] + C1CN(CCC1(C(=O)N[C@@H](CCO)C2=CC=C(C=C2)Cl)N)C3=NC=NC4=C3C=CN4 [Capivasertib] (first compound max 1 µM, 7x7, partner max 3 µM) | 0.966 | 0.446 | 0.347 | 0.415 | 0.366 | 0.897 | 0.928 | 0.671 | 0.337 | 0.237 | 0.452 | 0.631 | 0.169 | 0.189 | 0.996 | 0.182 | 0.231 | 0.256 | 0.292 | 0.9
